Broadly, the IC50 is the concentration at which inhibition is half-maximal.

This assay deals with T1, PIk1 (Homo sapiens, UniProt P53350).
T1 construct: His tag (histidine tag) (N); made in house; host or cells: SF9 insect cells
T1 sequence (P53350 whole entry): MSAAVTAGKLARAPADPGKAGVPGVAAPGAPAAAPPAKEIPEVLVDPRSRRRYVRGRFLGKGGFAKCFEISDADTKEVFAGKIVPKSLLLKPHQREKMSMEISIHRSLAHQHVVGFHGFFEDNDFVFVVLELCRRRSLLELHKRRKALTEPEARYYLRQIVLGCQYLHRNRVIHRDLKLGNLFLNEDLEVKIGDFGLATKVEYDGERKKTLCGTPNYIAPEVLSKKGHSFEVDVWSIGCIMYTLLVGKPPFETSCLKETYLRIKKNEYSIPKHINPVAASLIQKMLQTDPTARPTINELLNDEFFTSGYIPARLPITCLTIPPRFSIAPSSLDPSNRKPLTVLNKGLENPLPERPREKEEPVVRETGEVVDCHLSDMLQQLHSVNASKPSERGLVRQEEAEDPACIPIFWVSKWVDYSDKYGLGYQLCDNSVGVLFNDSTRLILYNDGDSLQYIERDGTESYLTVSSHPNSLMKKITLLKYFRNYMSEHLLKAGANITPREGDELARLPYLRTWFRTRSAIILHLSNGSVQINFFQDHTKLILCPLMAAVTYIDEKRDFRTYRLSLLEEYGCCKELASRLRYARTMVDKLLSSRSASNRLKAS
The experiment in a line: PIk1 kinase activity inhibition assay (33P incorporation into alpha casein, flash plates). In kind it is biochemical. To be noted: recombinant N-terminally histidine-tagged PIk1, alpha casein as substrate, 100 nM Li-ATP, 80 minutes at 30°C. As to the method:
The inhibition of PIk1 kinase activity can be measured using recombinant PIk1 protein expressed as an N-terminally histidine-tagged protein in SF9 insect cells and alpha casein as substrate. The PIk1 assay is run in 96 well plates by incubating 50 to 100 ng per well recombinant PIk1, 500 ng per well alpha casein (Sigma, # C-6780) as substrate, 10 µl of compound of invention (test compounds were dissolved as 20 mM solutions in dimethylsulfoxide (DMSO) and subsequently diluted), and 100 nM Li-ATP (including ^33P-ATP) in 100 µl of reaction buffer ([…], pH 7.5; 3 mM MgCl2; 3 mM MnCl2; 3 µM Na-Orthovanadat; 1 mM DTT; 1 µg/ml PEG 8000) for 80 minutes at 30°C. The reactions are terminated by adding 100 µl stopping buffer (2% H3PO4 for 5 minutes) and are washed 3 times with washing solution (0,9% NaCl). Determining ^33P incorporated into the protein substrate alpha casein, the detection is based on the adhesion of the phosphorylated protein to the surface of scintillator-coated flash plates (Perkin Elmer, USA; # SMP-200). Phosphorylation of alpha casein is measured by counting the radioactivity bound to the plate for 60 sec. using a plate reader (Perkin Elmer, USA; Wallac Microbeta). By this method, the IC50 value of the PIk1 inhibition is determined as described above. […]
For `COc1cc(C(=O)NC2CCN(C)CC2)ccc1Nc1ncc2c(cc(OC)c(=O)n2C)n1` [Example 21, 3-methoxy-4-[(7-methoxy-5-methyl-6-oxo-5,6-dihydropyrido[3,2-d]pyrimidin-2-yl)amino]-N-(1-methylpiperidin-4-yl)benzamide], the IC50 was less than 1 µM.

In the case of `C=C(C)c1c(OC)c(=O)n(C)c2cnc(Nc3ccc(C(=O)NC4CCN(C)CC4)cc3OC)nc12` [Example 22, 4-[(8-isopropenyl-7-methoxy-5-methyl-6-oxo-5,6-dihydropyrido[3,2-d]pyrimidin-2-yl)amino]-3-methoxy-N-(1-methylpiperidin-4-yl)benzamide], the IC50 was less than 0.1 µM.

In the case of `COc1cc(C(=O)NC2CCN(C)CC2)ccc1Nc1ncc2c(n1)c(CC1=CCOC1)c(OC)c(=O)n2C` [Example 23, 4-{[8-(2,5-dihydrofuran-3-ylmethyl)-7-methoxy-5-methyl-6-oxo-5,6-dihydropyrido[3,2-d]pyrimidin-2-yl]amino}-3-methoxy-N-(1-methylpiperidin-4-yl)benzamide], the IC50 was less than 1 µM.

`COc1cc(C(=O)NC2CCN(C)CC2)ccc1Nc1ncc2c(n1)c(C(C)C)c(OC)c(=O)n2C` [Example 24, 4-[(8-isopropyl-7-methoxy-5-methyl-6-oxo-5,6-dihydropyrido[3,2-d]pyrimidin-2-yl)amino]-3-methoxy-N-(1-methylpiperidin-4-yl)benzamide]: the IC50 is less than 1 µM.

On to `C/C=C/c1c(OC)c(=O)n(C)c2cnc(Nc3ccc(C(=O)NC4CCN(CC)CC4)cc3OC)nc12` [Example 25, N-(1-ethylpiperidin-4-yl)-3-methoxy-4-({7-methoxy-5-methyl-6-oxo-8-[(1E)-prop-1-en-1-yl]-5,6-dihydropyrido[3,2-d]pyrimidin-2-yl}amino)benzamide], for which the IC50 is less than 1 µM.

On to `C/C=C/c1c(OC)c(=O)n(C)c2cnc(Nc3ccc(C(=O)NCC4CCN(C)CC4)cc3OC)nc12` [Example 26, 3-methoxy-4-({7-methoxy-5-methyl-6-oxo-8-[(1E)-prop-1-en-1-yl]-5,6-dihydropyrido[3,2-d]pyrimidin-2-yl}amino)-N-[(1-methylpiperidin-4-yl)methyl]benzamide], for which the IC50 was less than 0.1 µM.

Turning to `C/C=C/c1c(OCC2CC2)c(=O)n(C)c2cnc(Nc3ccc(C(=O)NC4CCN(C)CC4)cc3OC)nc12` [Example 27, 4-({7-(cyclopropylmethoxy)-5-methyl-6-oxo-8-[(1E)-prop-1-en-1-yl]-5,6-dihydropyrido[3,2-d]pyrimidin-2-yl}amino)-3-methoxy-N-(1-methylpiperidin-4-yl)benzamide], the IC50 was less than 0.1 µM.

Turning to `C/C=C/c1c(OC)c(=O)n(C)c2cnc(Nc3ccc(C(=O)Nc4cccnc4)cc3OC)nc12` [Example 28, 3-methoxy-4-({7-methoxy-5-methyl-6-oxo-8-[(1E)-prop-1-en-1-yl]-5,6-dihydropyrido[3,2-d]pyrimidin-2-yl}amino)-N-pyridin-3-ylbenzamide], the IC50 is less than 1 µM.

Consider `C/C=C/c1c(OC)c(=O)n(C)c2cnc(Nc3ccc(C(=O)N[C@@H](C)Cc4c[nH]cn4)cc3OC)nc12` [Example 29, N-[(1S)-2-(1H-imidazol-4-yl)-1-methylethyl]-3-methoxy-4-({7-methoxy-5-methyl-6-oxo-8-[(1E)-prop-1-en-1-yl]-5,6-dihydropyrido[3,2-d]pyrimidin-2-yl}amino)benzamide], for which the IC50 was less than 0.1 µM.

Turning to `CCOc1c(-c2ccsc2)c2nc(Nc3ccc(C(=O)NC4CCN(C)CC4)cc3OC)ncc2n(C)c1=O` [Example 30, 4-{[7-ethoxy-5-methyl-6-oxo-8-(3-thienyl)-5,6-dihydropyrido[3,2-d]pyri-midin-2-yl]amino}-3-methoxy-N-(1-methylpiperidin-4-yl)benzamide], the IC50 was less than 0.01 µM.

Take `COc1cc(C(=O)NC2CCN(C)CC2)ccc1Nc1ncc2c(n1)c(-c1ccsc1)c(OC(C)C)c(=O)n2C` [Example 31, 4-{[7-isopropoxy-5-methyl-6-oxo-8-(3-thienyl)-5,6-dihydropyrido[3,2-d]pyrimidin-2-yl]amino}-3-methoxy-N-(1-methylpiperidin-4-yl)benzamide]: the IC50 is less than 0.1 µM.

For `COc1cc(C(=O)NC2CCN(C)CC2)ccc1Nc1ncc2c(n1)c(-c1ccsc1)c(OCC1CC1)c(=O)n2C` [Example 32, 4-{[7-(cyclopropylmethoxy)-5-methyl-6-oxo-8-(3-thienyl)-5,6-dihydro-pyrido[3,2-d]pyrimidin-2-yl]amino}-3-methoxy-N-(1-methylpiperidin-4-yl)benzamide], the IC50 is less than 0.1 µM.

In the case of `COc1cc(C(=O)NC2CCN(C)CC2)ccc1Nc1ncc2c(n1)c(-c1cscc1C)c(OC)c(=O)n2C` [Example 33, 3-methoxy-4-{[7-methoxy-5-methyl-8-(4-methyl-3-thienyl)-6-oxo-5,6-dihydropyrido[3,2-d]pyrimidin-2-yl]amino}-N-(1-methylpiperidin-4-yl)benzamide], the half-inhibitory concentration (IC50) is less than 1 µM.

On to `COc1cc(C(=O)NC2CCN(C)CC2)ccc1Nc1ncc2c(n1)c(-c1cncnc1)c(OC)c(=O)n2C` [Example 34, 3-methoxy-4-[(7-methoxy-5-methyl-6-oxo-8-pyrimidin-5-yl-5,6-dihydro-pyrido[3,2-d]pyrimidin-2-yl)amino]-N-(1-methylpiperidin-4-yl)benzamide], for which the IC50 was less than 1 µM.

`COc1cc(C(=O)NC2CCN(C)CC2)ccc1Nc1ncc2c(n1)c(-c1cnn(C)c1)c(OC)c(=O)n2C` [Example 35, 3-methoxy-4-{[7-methoxy-5-methyl-8-(1-methyl-1H-pyrazol-4-yl)-6-oxo-5,6-dihydropyrido[3,2-d]pyrimidin-2-yl]amino}-N-(1-methylpiperidin-4-yl)benzamide]: the IC50 was less than 1 µM.

As to `CCC(C)Oc1c(-c2ccsc2)c2nc(Nc3ccc(C(=O)NC4CCN(C)CC4)cc3OC)ncc2n(C)c1=O` (stereo not drawn) [Example 36, 4-{[7-sec-butoxy-5-methyl-6-oxo-8-(3-thienyl)-5,6-dihydropyrido[3,2-d]pyrimidin-2-yl]amino}-3-methoxy-N-(1-methylpiperidin-4-yl)benzamide], the IC50 was less than 0.1 µM.

As to `CCOc1c(C2CC2)c2nc(Nc3ccc(C(=O)NC4CCN(C)CC4)cc3OC)ncc2n(C)c1=O` [Example 37, 4-[(8-cyclopropyl-7-ethoxy-5-methyl-6-oxo-5,6-dihydropyrido[3,2-d]pyrimidin-2-yl)amino]-3-methoxy-N-(1-methylpiperidin-4-yl)benzamide], the IC50 was less than 0.1 µM.

For `COc1cc(C(=O)NC2CCN(C)CC2)ccc1Nc1ncc2c(n1)c(C1CC1)c(OCC1CC1)c(=O)n2C` [Example 38, 4-{[8-cyclopropyl-7-(cyclopropylmethoxy)-5-methyl-6-oxo-5,6-dihydro-pyrido[3,2-d]pyrimidin-2-yl]amino}-3-methoxy-N-(1-methylpiperidin-4-yl)benzamide], the IC50 is less than 0.01 µM.

In the case of `COc1cc(C(=O)NC2CCN(C)CC2)ccc1Nc1ncc2c(n1)c(-c1ccoc1)c(OCC1CC1)c(=O)n2C` [Example 39, 4-{[7-(cyclopropylmethoxy)-8-(3-furyl)-5-methyl-6-oxo-5,6-dihydro-pyrido[3,2-d]pyrimidin-2-yl]amino}-3-methoxy-N-(1-methylpiperidin-4-yl)benzamide], the IC50 was less than 0.01 µM.

In the case of `C/C=C/c1c(OC(C)CC)c(=O)n(C)c2cnc(Nc3ccc(C(=O)NC4CCN(C)CC4)cc3OC)nc12` (stereo not drawn) [Example 40, 4-({7-sec-butoxy-5-methyl-6-oxo-8-[(1E)-prop-1-en-1-yl]-5,6-dihydro-pyrido[3,2-d]pyrimidin-2-yl}amino)-3-methoxy-N-(1-methylpiperidin-4-yl)benzamide], the half-maximal inhibitory concentration (IC50) is less than 0.1 µM.

Regarding `C/C=C/c1c(OCC(C)C)c(=O)n(C)c2cnc(Nc3ccc(C(=O)NC4CCN(C)CC4)cc3OC)nc12` [Example 41, 4-({7-isobutoxy-5-methyl-6-oxo-8-[(1E)-prop-1-en-1-yl]-5,6-dihydro-pyrido[3,2-d]pyrimidin-2-yl}amino)-3-methoxy-N-(1-methylpiperidin-4-yl)benzamide], the IC50 was less than 0.01 µM.

In the case of `C/C=C/c1c(OCC2CCCC2)c(=O)n(C)c2cnc(Nc3ccc(C(=O)NC4CCN(C)CC4)cc3OC)nc12` [Example 42, 4-({7-(cyclopentylmethoxy)-5-methyl-6-oxo-8-[(1E)-prop-1-en-1-yl]-5,6-dihydropyrido[3,2-d]pyrimidin-2-yl}amino)-3-methoxy-N-(1-methylpiperidin-4-yl)benzamide], the IC50 was less than 0.1 µM.

On to `C/C=C/c1c(OC2CCC2)c(=O)n(C)c2cnc(Nc3ccc(C(=O)NC4CCN(C)CC4)cc3OC)nc12` [Example 43, 4-({7-(cyclobutyloxy)-5-methyl-6-oxo-8-[(1E)-prop-1-en-1-yl]-5,6-dihydropyrido[3,2-d]pyrimidin-2-yl}amino)-3-methoxy-N-(1-methylpiperidin-4-yl)benzamide], for which the IC50 is less than 0.01 µM.

`CCOc1c(-c2ncco2)c2nc(Nc3ccc(C(=O)NC4CCN(C)CC4)cc3OC)ncc2n(C)c1=O` [Example 44, 4-{[7-ethoxy-5-methyl-8-(1,3-oxazol-2-yl)-6-oxo-5,6-dihydropyrido[3,2-d]pyrimidin-2-yl]amino}-3-methoxy-N-(1-methylpiperidin-4-yl)benzamide]: the IC50 is less than 0.1 µM.

(Values after patent EP2100894A1, “Pyridopyrimidines used as Plk1 (polo-like kinase) inhibitors” (4SC AG, priority 2008, dated 2009).)
